From patent US9446026B2, “Ocular formulations for drug-delivery to the posterior segment of the eye” (PanOptica, Inc., priority 2013, dated 2016)
Where two headings read alike, the source gives them in different places.

Columns and labels:
[1] = 1- to 5-day PK with topical ocular Compound-I formulations (Example 5); settings: Dutch Belted, rabbit, aqueous humor, Average Concentration of Compound-I, Dutch Belted rabbits, topical ocular q.d. or b.i.d., 24 hr post-dose, Group per row, LLOQ 0.000903 μM
Method: All doses were administered within ±1 hour of the scheduled dose time. On day 1, Groups 1, 2, 4-6, 8, 10, 11, 13, 15, and 17 received one dose (q.d.) for either one (1) or four (4) days. […] Animals in Groups 18 and 19 received b.i.d dosing of vehicle only formulations for five (5) consecutive days.
Ocular sampling occurred for Group 1 at 0.5, 1, 2, 4, 8, or 24 hours post-dose relative to the day 1 dose. Ocular sampling occurred for Groups 2 and 6 at 1, 8, and 24 hours post-dose relative to the day 5 morning dose. Ocular sampling for Groups 3, 7, 8, 11, and 13 occurred at 1 and 24 hours post-dose relative to the day 5 morning dose. Ocular sampling for Groups 4, 9, 10, 12, 14, 15, 16, and 17 occurred at 1 hour post-dose relative to the day 5 morning dose. Group 5 ocular sampling occurred at 0.5, 1, 2, 4, 8, and 24 hours post-dose relative to the day 1 dose. Animals in Groups 18 and 19 were followed only by clinical observations for five (5) days.
Aqueous humor, cornea, central and peripheral retina, and central and peripheral choroid samples were collected. Aqueous humor, cornea, central retina, and central choroid samples were then assayed. Peripheral retina and peripheral choroid samples were assayed only for Groups 1-8, 12, 14, and 16 per study protocol.
Rabbit aqueous humor, cornea, central and peripheral retina, and central and peripheral choroid samples were analyzed.

[2] = Ocular tissue concentrations, 0.3% Compound-I Tris-based suspension twice daily 30 days; format: in vivo, Dutch-Belted rabbits; settings: Dutch-Belted, rabbit, topical

In the case of `Cl.NC(=O)c1c(OCc2c(F)cc(Br)cc2F)nsc1NC(=O)NCCCCN1CCCC1` [Compound-I, 3-[(4-bromo-2,6-difluorophenyl)methoxy]-5-[[[[4-(1-pyrrolidinyl)butyl]amino]carbonyl]amino]-4-isothiazolecarboxamide hydrochloride], the concentration at 24 h [1] is reported as 5.18 nM, the concentration at 1 h ([2]; aqueous humor, 0.3% Tris-based suspensions with and without benzylalkonium chloride, twice daily, 1 hour after first daily dose on day 30, read-out: Mean ocular tissue concentration, aqueous humor) is reported as 1.27 to 1.45 nM and the concentration at 1 h ([2]; central choroid, 0.3 % w/v, 0.3% Tris Suspension, Twice Daily 30 days, read-out: Central Choroid [Compound I]) is reported as 319 nM. The concentration at 1 h ([2]; central choroid, 0.3% Tris-based suspensions with and without benzylalkonium chloride, twice daily, 1 hour after first daily dose on day 30, read-out: Mean ocular tissue concentration, central choroid) was 303 to 319 nM, the concentration at 1 h ([2]; central retina, 0.3% Tris-based suspensions with and without benzylalkonium chloride, twice daily, 1 hour after first daily dose on day 30, read-out: Mean ocular tissue concentration, central retina) was 49.5 to 59.2 nM and the concentration at 1 h ([2]; cornea, 0.3 % w/v, 0.3% Tris Suspension, Twice Daily 30 days, read-out: Cornea [Compound I]) was 2690 nM. For the same compound, the concentration at 1 h ([2]; cornea, 0.3% Tris-based suspensions with and without benzylalkonium chloride, twice daily, 1 hour after first daily dose on day 30, read-out: Mean ocular tissue concentration, cornea) was 2690 to 3100 nM, the concentration at 1 h ([2]; peripheral choroid, 0.3% Tris-based suspensions with and without benzylalkonium chloride, twice daily, 1 hour after first daily dose on day 30, read-out: Mean ocular tissue concentration, peripheral choroid) was 781 to 1210 nM and the concentration at 1 h ([2]; peripheral retina, 0.3% Tris-based suspensions with and without benzylalkonium chloride, twice daily, 1 hour after first daily dose on day 30, read-out: Mean ocular tissue concentration, peripheral retina) was 81.9 to 86.8 nM.
